Data taken from patent publication US8481525B2, “Kinase inhibitors and method of treating cancer with same” (University of Health Network, priority 2009, dated 2013).

Columns and labels:
HUV-EC-C cells = test: In Vitro Angiogenesis Assay (tube formation); details: HUV-EC-C cells on ECMatrix, 4 hr; FIGS. 1 and 2
[1] = tested on: HCC1954 basal breast cancer cell line; test: Cell growth inhibition, Sulforhodamine B assay (SRB); type: cell-based; details: Homo sapiens, HCC1954, 120 h, read-out: Cell Line GI50 Range HCC-1954
How it was run: (§1)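 Cells were exposed to compound for 5 days, then fixed in situ with ice-cold 10% TCA at 4 °C and stained with sulforhodamine B to estimate total protein mass.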

[2] = tested on: SW620 colon cancer cell line; test: as above; type: cell-based; details: Homo sapiens, SW-620, 120 h, read-out: Cell Line GI50 Range SW-620, SW620 colon cancer cell line; 5 days culture; SRB
How it was run: as §1

[3] = tested on: 184A1 immortalized breast cell line; test: Cell growth inhibition, SRB assay, extended panel; type: cell-based; details: 184A1, 120 h, read-out: GI50 Range
Experimental: (§2) The cells were cultured for 5 days before the Sulforhodamine B assay (SRB) was performed to determine the compound's cell growth inhibition activity.
(§3) Sulforhodamine B (purchased from Sigma, Oakville, ON, Canada) is a water-soluble dye that binds to the basic amino acids of the cellular proteins. Thus, colorimetric measurement of the bound dye provides an estimate of the total protein mass that is related to the cell number. the cells are fixed in situ by gently aspirating off the culture media and adding 50 μl ice cold 10% Trichloroacetic Acid (TCA) per well and incubate at 4° C. for 30-60 min, The plates are washed with water five times and allowed to air dry for 5 min. […] Following staining, plates are washed four times with 1% acetic acid to remove unbound dye and then allowed to air dry for 5 min. […] Absorbance is read at 570 nm.
(§4) The percentage (%) of relative growth inhibition was calculated by comparing to DMSO treated only cells (100%). GI50's were determined for compounds with cytotoxic activity. The GI50 was calculated using GraphPad PRISM software (GraphPad Software, Inc., San Diego, Calif., USA).
(§5) The sulforhodamine B assay (SRB) described above was use to assay test compounds against the extended panel (Table 6).

[4] = tested on: BT474 breast cancer cell line; test: Cell growth inhibition, SRB assay, extended panel; type: cell-based; details: Homo sapiens, BT-474, 120 h, read-out: GI50 Range
Experimental: as §2, §3, §4, §5

[5] = tested on: SKBR3 breast cancer cell line; test: Cell growth inhibition, SRB assay, extended panel; type: cell-based; details: Homo sapiens, SK-BR-3, 120 h, read-out: GI50 Range
Experimental: as §2, §3, §4, §5

[6] = tested on: SK-OV-3 ovarian cancer cell line; test: Cell growth inhibition, SRB assay, extended panel; type: cell-based; details: Homo sapiens, SK-OV-3, 120 h, read-out: GI50 Range
Experimental: as §2, §3, §4, §5

[7] = tested on: SW 626 ovarian cancer cell line; test: Cell growth inhibition, SRB assay, extended panel; type: cell-based; details: Homo sapiens, SW626, 120 h, read-out: GI50 Range
Experimental: as §2, §3, §4, §5

[8] = tested on: HCT116+/− colon cancer cell line; test: Cell growth inhibition, SRB assay, extended panel; type: cell-based; details: Homo sapiens, HCT-116, 120 h, read-out: GI50 Range
Experimental: as §2, §3, §4, §5

[9] = tested on: HCT-15 colon cancer cell line; test: Cell growth inhibition, SRB assay, extended panel; type: cell-based; details: Homo sapiens, HCT-15, 120 h, read-out: GI50 Range
Experimental: as §2, §3, §4, §5

[10] = tested on: PC-3 prostate cancer cell line; test: Cell growth inhibition, SRB assay, extended panel; type: cell-based; details: 120 h, read-out: GI50 Range
Experimental: as §2, §3, §4, §5

[11] = tested on: HCT116+/+ colon cancer cell line; test: Cell growth inhibition, SRB assay, extended panel; type: cell-based; details: Homo sapiens, HCT-116, 120 h, read-out: GI50 Range
Experimental: as §2, §3, §4, §5

[12] = tested on: human mammary epithelial primary cells (HMEC); test: Cell growth inhibition, Sulforhodamine B assay (SRB); details: 120 h, read-out: Cell Line GI50 Range HMEC

For `CN(C)Cc1ccc(/C=C/c2n[nH]c3cc([C@@H]4C[C@@]45C(=O)Nc4ccccc45)ccc23)cc1` (racemic) [Example A23, (1R*,2S*)-(E)-2-(3-(4-((dimethylamino)methyl)styryl)-1H-indazol-6-yl)spiro[cyclopropane-1,3′-indolin]-2′-one 2,2,2-trifluoroacetate], the “anti-angiogenic effect (tube formation, % of control tube count)” value (HUV-EC-C cells) was “anti-agiogenic effects at submicromolar concentrations”, the GI50 [1] was 1 to 10 µM and the GI50 [2] was less than 0.1 µM. It also gave a GI50 [3] of 1 to 50 µM, a GI50 [4] of 1 to 50 µM and a GI50 [5] of 1 to 50 µM. It also gave a GI50 [6] of 1 to 50 µM, a GI50 [7] of 1 to 50 µM and a GI50 [8] of 1 to 50 µM. The GI50 [9] was 1 to 50 µM, the GI50 [10] was 1 to 50 µM and the GI50 [11] was 1 to 50 µM. The GI50 [12] was greater than 10 µM.
